The values below come from US20230058623A1, “NOVEL HETEROARYL-TRIAZOLE COMPOUNDS AS PESTICIDES” (Bayer Aktiengesellschaft, priority 2019, published 2023).

Assay type in all cases: in vivo
The test system of assay [1] is green peach aphid (Myzus persicae). The assay is described as follows: Myzus persicae oral test. As to conditions: 120 h, read-out: activity (mortality). The method, boiled down: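 Oral uptake format: water-diluted acetone concentrate of compound is blended into IPL41 medium carrying 33%+15% sugar and offered under a parafilm membrane. Percentage of dead insects is recorded after 5 days.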

For assay [2], the system named is adult cat fleas (Ctenocephalides felis). Briefly: Ctenocephalides felis in-vitro contact test, adult cat flea. As to conditions: application rate 5 μg/cm^2 (=500 g/ha), after 48 hours, read-out: activity (efficacy: fleas dead or moribund). The method, boiled down:
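Acetone solutions of compound were coated onto inner walls of glass tubes (900 ppm giving 5 μg/cm^2) and dried; 5-10 adult C. felis were then held 48 h at room temperature. Efficacy = % fleas dead or moribund, judged by inability to escape a 45-50° C heating plate within 5 min.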

The subject of assay [3] is fall armyworm larvae (Spodoptera frugiperda). Briefly: Spodoptera frugiperda spray test. The note with it: 168 h, application rate 100 g/ha, after 7 days, maize leaf sections. In short, it runs like this:
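Caterpillars are placed on sprayed, dried maize leaf sections. Sprays contain compound diluted in water with emulsifier at 1000 ppm; mortality in % is determined 7 days later.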

Assay [4] deals with adult mosquitoes Anopheles funestus strain FUMOZ-R. The assay is described as follows: Anopheles funestus test (ANPHFU surface treatment & contact assay). The note with it: surface concentration 20 mg/m^2, exposure 30 minutes, 24 hours after contact, read-out: efficacy (mortality). How it is done:
Anopheles funestus Test (ANPHFU Surface Treatment & Contact Assay)
Solvent: Aceton+2000 ppm rapeseed oil methyl ester (RME)
In order to produce a sufficient, active ingredient containing solution it is necessary to solve the test compound in the solvent-mix (acetone at 2 mg/ml/RME 2000 ppm). This solution is pipetted onto a glazed tile and after evaporation of the acetone, adult mosquitoes of the species Anopheles funestus strain FUMOZ-R (Hunt et al., Med. Vet. Entomol. 2005 September; 19(3): 271-275) are placed onto the dried surface. The exposure time is 30 minutes.
Mortality in percent (%) is determined 24 hours after contact of the insects to the treated surface. 100% mortality means that all tested insects are dead, whereas 0% means that no insect died.

Assay [5] has as its system cattle ticks (Rhipicephalus microplus) strain Parkhurst, SP-resistant. Briefly: Rhipicephalus (Boophilus) microplus dip test. The note with it: 168 h, application rate 100 ppm, egg deposition after 7 days, read-out: activity (efficacy: infertile eggs). The protocol:
Rhipicephalus (Boophilus) microplus—Dip Test
Test animal: cattle ticks (Rhipicephalus microplus) strain Parkhurst, SP-resistant
Solvent: dimethyl sulfoxide
To produce a suitable preparation of active compound, 10 mg of active compound are dissolved in 0.5 mL solvent, and the concentrate is diluted with water to the desired concentration.
This compound solution is pipetted into tubes. 8-10 engorged, adult, female cattle ticks (Rhipicephalus microplus) are placed in perforated tubes. These tubes are immersed in the aqueous compound solution until the ticks are completely moistened. After the liquid has drained off, the ticks are transferred to a filter paper in a plastic tray and stored in a climate chamber.
After 7 days egg deposition of fertile eggs is monitored. Eggs where fertility is not visible are stored in a climate chamber till hatching after about 42 days. An efficacy of 100% means all eggs are infertile; 0% means all eggs are fertile.

Assay [6] has as its system two spotted spidermite (Tetranychus urticae). Briefly: Tetranychus urticae spray test OP-resistant. The note with it: foliar, 144 h, application rate 100 g/ha, after 6 days, French bean leaf disks. The protocol: Tetranychus urticae—Spray Test OP-Resistant
To produce a suitable preparation of active compound, 1 part by weight of active compound is mixed with the stated amount of solvents and is diluted with water, containing an emulsifier concentration of 1000 ppm, to the desired concentration. Further test concentrations are prepared by dilution with emulsifier containing water.
French bean (Phaseolus vulgaris) leaf disks infected with all instars of the two spotted spidermite (Tetranychus urticae) are sprayed with a preparation of the active ingredient of the desired concentration.
After 6 days mortality in % is determined. 100% means all spider mites have been killed and 0% means none of the spider mites have been killed.

The subject of assay [7] is brown planthopper (Nilaparvata lugens). The assay is described as follows: Nilaparvata lugens spray test. As to conditions: 96 h, after 4 days, rice plants; for mortality at 100 g/ha: application rate 100 g/ha. In short, it runs like this:
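Rice plants sprayed with compound diluted in water containing 1000 ppm emulsifier, then infested with brown planthopper. Mortality (%) scored after 4 days, 100% meaning all insects killed.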

Assay [8] has as its system adult engorged female ticks (Rhipicephalus microplus). The assay is described as follows: Rhipicephalus (Boophilus) microplus injection test. The note with it: 168 h, application rate 4 μg/tick, egg deposition after 7 days, read-out: activity (efficacy: infertile eggs). In short, it runs like this:
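Efficacy is scored from egg fertility, with 100% meaning every egg infertile and 0% every egg fertile. Five engorged females per test received 1 μL DMSO solution abdominally. Eggs of unclear fertility were kept until hatching, about 42 days.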

As a reminder, the mortality is the percentage killed. Take `Cc1nc([C@H](C)NC(=O)c2cc(C(F)(F)F)cc(C(F)(F)F)c2)n(-c2ccc(C(=O)N3CCOCC3)cn2)n1` [Example I-9, N-[(1S)-1-{3-methyl-1-[5-(morpholin-4-ylcarbonyl)pyridin-2-yl]-1H-1,2,4-triazol-5-yl}ethyl]-3,5-bis(trifluoromethyl)benzamide]: in assay [1], the mortality at 4 ppm worked out at 100%. Moreover, the pest or weed control at 5 µg/cm2 in assay [2] was 100%. In addition, the mortality at 100 g/ha in assay [3], in assay [6] and in assay [7] was 100% in each case. For the same molecule, in assay [4], the mortality at 20 mg/m2 lay within 80 to 100%. The pest or weed control at 100 ppm in assay [5] was found to be 100%. Moreover, the pest or weed control at 0.004 mg in assay [8] is 100%.

For `CC1CN(C(=O)c2ccc(-n3ncnc3[C@H](C)NC(=O)c3cc(C(F)(F)F)cc(C(F)(F)F)c3)nc2)CC(C)O1` (stereo partly shown) [Example I-5], the mortality at 4 ppm in assay [1] worked out at 100%. In addition, the pest or weed control at 5 µg/cm2 in assay [2] is 100%. For the same molecule, the mortality at 100 g/ha was 100% in assay [3], 90% in assay [6] and 90% in assay [7]. Also, the mortality at 20 mg/m2 in assay [4] lay within 80 to 100%. The pest or weed control at 100 ppm in assay [5] came out at 100%. Further, the pest or weed control at 0.004 mg in assay [8] was 100%.

As for `C[C@H](NC(=O)c1cc(C(F)(F)F)cc(C(F)(F)F)c1)c1ncnn1-c1ccc(C(=O)N2CCOCC2)cn1` [Example I-2], the mortality at 4 ppm in assay [1] is 100%. The pest or weed control at 5 µg/cm2 in assay [2] is 100%. Moreover, the mortality at 100 g/ha in assay [3] amounted to 100%; in assay [6] it was 90%; in assay [7] it was 90%. Moreover, in assay [4], the mortality at 20 mg/m2 lay in the range of 80 to 100%. For the same molecule, the pest or weed control at 100 ppm in assay [5] turned out to be 100%. Besides, the mortality at 500 g/ha in assay [7] (application rate 500 g/ha) turned out to be 100%. In assay [8], the pest or weed control at 0.004 mg is 100%.
